Laboratory results taken from patent publication US9029368B2, “3,7-disubstituted octahydro-2H-pyrido[4,3-E][1,3]oxazin-2-one antibiotics” (Actelion Pharmaceuticals Ltd., priority 2011, dated 2015).
Converted amounts (≈) assume the structure as drawn.

test system: S. aureus 29213; experiment: Bacterial growth minimal inhibitory concentrations (microdilution in cation-adjusted Mueller-Hinton Broth, CLSI M7-A7); type: cell-based; settings: Staphylococcus aureus, 29213, microdilution method
Procedure: Bacterial Growth Minimal Inhibitory Concentrations: Minimal inhibitory concentrations (MICs; mg/l) were determined in cation-adjusted Mueller-Hinton Broth by a microdilution method following the description given in “Methods for Dilution Antimicrobial Susceptibility Tests for Bacteria that Grow Aerobically”, Approved standard, 7th ed., Clinical and Laboratory Standards Institute (CLSI) Document M7-A7, Wayne, Pa., USA, 2006. All Example compounds were tested against several Gram positive and Gram negative bacteria.

With `COc1ccc2ncc(F)c([C@@H](O)CN3CC[C@@H]4CN(c5ccc6c(c5)OCCO6)C(=O)O[C@H]4C3)c2n1` (mixture of isomers) [Example 13, (4aR*,8aR*)-3-(2,3-dihydro-benzo[1,4]dioxin-6-yl)-7-[(R)-2-(3-fluoro-6-methoxy-[1,5]naphthyridin-4-yl)-2-hydroxy-ethyl]-octahydro-pyrido[4,3-e][1,3]oxazin-2-one] as the compound, how does the MIC read?
The MIC was 0.063 µg/mL.

For `COc1ccc2nccc(C(O)CN3CC[C@@H]4CN(c5ccc6c(c5)OCCO6)C(=O)O[C@H]4C3)c2n1` (mixture of isomers) [Example 3, (4aR*,8aR*)-3-(2,3-dihydro-benzo[1,4]dioxin-6-yl)-7-[(2RS)-2-hydroxy-2-(6-methoxy-[1,5]naphthyridin-4-yl)-ethyl]-octahydro-pyrido[4,3-e][1,3]oxazin-2-one], which MIC is on record?
Its MIC is 0.125 µg/mL (≈ 0.254 µM).

How did the MIC turn out when `COc1ccc2nccc(CCN3CC[C@@H]4CN(c5ccc6c(c5)OCCO6)C(=O)O[C@H]4C3)c2n1` (racemic) [Example 4, rac-(4aR*,8aR*)-3-(2,3-dihydro-benzo[1,4]dioxin-6-yl)-7-[2-(6-methoxy-[1,5]naphthyridin-4-yl)-ethyl]-octahydro-pyrido[4,3-e][1,3]oxazin-2-one] was run?
The MIC was 0.063 µg/mL (≈ 0.132 µM).

Which MIC does the source give for `COc1ccc2ncc(F)c(CCN3CC[C@@H]4CN(c5ccc6c(c5)NC(=O)CO6)C(=O)O[C@H]4C3)c2n1` (racemic) [Example 5, rac-(4aR*,8aR*)-7-[2-(3-fluoro-6-methoxy-[1,5]naphthyridin-4-yl)-ethyl]3-(3-oxo-3,4-dihydro-2H-benzo[1,4]oxazin-6-yl)-octahydro-pyrido[4,3-e][1,3]oxazin-2-one] here?
The MIC was no more than 0.031 µg/mL.

For `COc1ccc2ncc(F)c(C(O)CN3CC[C@@H]4CN(c5ccc6c(c5)OCCO6)C(=O)O[C@H]4C3)c2n1` (mixture of isomers) [Example 6, (4aR*,8aR*)-3-(2,3-dihydro-benzo[1,4]dioxin-6-yl)-7-[(2RS)-2-(3-fluoro-6-methoxy-[1,5]naphthyridin-4-yl)-2-hydroxy-ethyl]-octahydro-pyrido[4,3-e][1,3]oxazin-2-one], which MIC is on record?
Its MIC is 0.063 µg/mL (≈ 0.123 µM).

How did the MIC turn out when `COc1ccc2ncc(F)c(CCN3CC[C@@H]4CN(c5ccc6c(c5)NC(=O)CS6)C(=O)O[C@H]4C3)c2n1` (racemic) [Example 7, rac-(4aR*,8aR*)-7-[2-(3-fluoro-6-methoxy-[1,5]naphthyridin-4-yl)-ethyl]-3-(3-oxo-3,4-dihydro-2H-benzo[1,4]thiazin-6-yl)-octahydro-pyrido[4,3-e][1,3]oxazin-2-one] was run?
The MIC was no more than 0.031 µg/mL.

How did the MIC turn out when `COc1ccc2ccc(=O)n(CCN3CC[C@@H]4CN(c5ccc6c(c5)OCCO6)C(=O)O[C@H]4C3)c2c1` (racemic) [Example 8, rac-(4aR*,8aR*)-3-(2,3-dihydro-benzo[1,4]dioxin-6-yl)-7-[2-(7-methoxy-2-oxo-2H-quinolin-1-yl)-ethyl]-octahydro-pyrido[4,3-e][1,3]oxazin-2-one] was run?
The MIC was no more than 0.031 µg/mL.

`COc1ccc2ncc(=O)n(CCN3CC[C@@H]4CN(c5ccc6c(c5)OCCO6)C(=O)O[C@H]4C3)c2c1` (racemic) [Example 9, rac-(4aR*,8aR*)-3-(2,3-dihydro-benzo[1,4]dioxin-6-yl)-7-[2-(7-methoxy-2-oxo-2H-quinoxalin-1-yl)-ethyl]-octahydro-pyrido[4,3-e][1,3]oxazin-2-one] was tested. Which MIC did it give?
The MIC was no more than 0.031 µg/mL.

`COc1ccc2ccc(=O)n(CCN3CC[C@@H]4CN(c5ccc6c(c5)OCCO6)C(=O)O[C@H]4C3)c2n1` (racemic) [Example 10, rac-(4aR*,8aR*)-3-(2,3-dihydro-benzo[1,4]dioxin-6-yl)-7-[2-(7-methoxy-2-oxo-2H-[1,8]naphthyridin-1-yl)-ethyl]-octahydro-pyrido[4,3-e][1,3]oxazin-2-one] was tested. Which MIC did it give?
The MIC was no more than 0.031 µg/mL.

`COc1ccc2ncc(=O)n(CCN3CC[C@@H]4CN(c5ccc6c(c5)OCCO6)C(=O)O[C@H]4C3)c2n1` (racemic) [Example 11, rac-(4aR*,8aR*)-3-(2,3-dihydro-benzo[1,4]dioxin-6-yl)-7-[2-(6-methoxy-3-oxo-3H-pyrido[2,3-b]pyrazin-4-yl)-ethyl]-octahydro-pyrido[4,3-e][1,3]oxazin-2-one] was tested. Which MIC did it give?
The MIC was no more than 0.031 µg/mL.

For `COc1cnc2ccc(=O)n(CCN3CC[C@@H]4CN(c5ccc6c(c5)OCCO6)C(=O)O[C@H]4C3)c2n1` (racemic) [Example 12, rac-(4aR*,8aR*)-3-(2,3-dihydro-benzo[1,4]dioxin-6-yl)-7-[2-(3-methoxy-6-oxo-6H-pyrido[2,3-b]pyrazin-5-yl)-ethyl]-octahydro-pyrido[4,3-e][1,3]oxazin-2-one], which MIC is on record?
The MIC was no more than 0.031 µg/mL.

How did the MIC turn out when `COc1ccc2ccc(F)c(C(O)CN3CC[C@@H]4CN(c5ccc6c(c5)OCCO6)C(=O)O[C@H]4C3)c2n1` (mixture of isomers) [Example 16, (4aR*,8aR*)-3-(2,3-dihydro-benzo[1,4]dioxin-6-yl)-7-[(2RS)-2-(7-fluoro-2-methoxy-quinolin-8-yl)-2-hydroxy-ethyl]-octahydro-pyrido[4,3-e][1,3]oxazin-2-one] was run?
The MIC was 0.125 µg/mL (≈ 0.245 µM).

Which MIC does the source give for `COc1cnc2ccc(F)c(C(O)CN3CC[C@@H]4CN(c5ccc6c(c5)OCCO6)C(=O)O[C@H]4C3)c2n1` (mixture of isomers) [Example 17, (4aR*,8aR*)-3-(2,3-dihydro-benzo[1,4]dioxin-6-yl)-7-[(2RS)-2-(6-fluoro-3-methoxy-quinoxalin-5-yl)-2-hydroxy-ethyl]-octahydro-pyrido[4,3-e][1,3]oxazin-2-one] here?
The MIC was 0.063 µg/mL (≈ 0.123 µM).

Which MIC does the source give for `COc1cnc2cccc(C(O)CN3CC[C@@H]4CN(c5ccc6c(c5)OCCO6)C(=O)O[C@H]4C3)c2n1` (mixture of isomers) [Example 18, (4aR*,8aR*)-3-(2,3-dihydro-benzo[1,4]dioxin-6-yl)-7-[(2RS)-2-hydroxy-2-(3-methoxy-quinoxalin-5-yl)-ethyl]-octahydro-pyrido[4,3-e][1,3]oxazin-2-one] here?
Its MIC is 0.063 µg/mL (≈ 0.128 µM).

`COc1ccc2ncc(F)c(CCN3CC[C@@H]4CN(c5ccc6c(n5)NC(=O)CO6)C(=O)O[C@H]4C3)c2n1` (racemic) [Example 19, rac-(4aR*,8aR*)-7-[2-(3-fluoro-6-methoxy-[1,5]naphthyridin-4-yl)-ethyl]3-(3-oxo-3,4-dihydro-2H-pyrido[3,2-b][1,4]oxazin-6-yl)-octahydro-pyrido[4,3-e][1,3]oxazin-2-one] was tested. Which MIC did it give?
Its MIC is no more than 0.031 µg/mL.

With `COc1ccc2ncc(F)c(CCN3CC[C@@H]4CN(c5cnc6c(c5)OCCO6)C(=O)O[C@H]4C3)c2n1` (racemic) [Example 22, rac-(4aR*,8aR*)-3-(2,3-dihydro-[1,4]dioxino[2,3-b]pyridin-7-yl)-7-[2-(3-fluoro-6-methoxy-[1,5]naphthyridin-4-yl)-ethyl]-octahydro-pyrido[4,3-e][1,3]oxazin-2-one] as the compound, how does the MIC read?
Its MIC is no more than 0.031 µg/mL.

For `COc1ccc2ncc(F)c(CCN3CC[C@@H]4CN(c5cc6c(nn5)OCCO6)C(=O)O[C@H]4C3)c2n1` (racemic) [Example 23, rac-(4aR*,8aR*)-3-(6,7-dihydro-[1,4]dioxino[2,3-c]pyridazin-3-yl)-7-[2-(3-fluoro-6-methoxy-[1,5]naphthyridin-4-yl)-ethyl]-octahydro-pyrido[4,3-e][1,3]oxazin-2-one], which MIC is on record?
Its MIC is no more than 0.031 µg/mL.

`COc1ccc2ncc(F)c(CCN3CC[C@@H]4CN(c5cc6c(cn5)OCCO6)C(=O)O[C@H]4C3)c2n1` (racemic) [Example 24, rac-(4aR*,8aR*)-3-(2,3-dihydro-[1,4]dioxino[2,3-c]pyridin-7-yl)-7-[2-(3-fluoro-6-methoxy-[1,5]naphthyridin-4-yl)-ethyl]-octahydro-pyrido[4,3-e][1,3]oxazin-2-one] was tested. Which MIC did it give?
Its MIC is no more than 0.031 µg/mL.
